A short description of data set [1]: hot plate test on mouse (central analgesic activity). The class given is in vivo. The protocol:
The compounds object of the present invention were tested in vivo in order to evaluate the central analgesic activity.
The hot plate test was carried out on mouse according to the method described by Eddy et al. (J. Pharmacol., 98, 121, 1950). The compounds were administered by systemic route (oral and subcutaneous). The analgesic activity was expressed as 50% effective dose (ED50).
In table 3 the results obtained for some representative compounds of formula I are reported.

Data set [2] deals with guinea-pig isolated ileum. As to the kind of experiment: morphine-like activity on guinea-pig isolated ileum (inhibition of electrically induced contractions). The class given is cell-based. Conditions: inhibition of 50% of contraction, electric stimulation 0.1 Hz-0.5 msec. The protocol: The experiments were carried out according to the method described by Goldstein and Schultz (Br. J. Pharmacol., 48, 655, 1975) which is based on the capacity of the molecules showing an agonist activity on opioid receptors to inhibit the contractions of smooth muscles of guinea-pig ileum induced by electric stimulation (0.1 Hz-0.5 msec.).
The pharmacological activity was expressed as the necessary concentration (mM) to inhibit 50% of contraction (IC50).

Another data set concerns the target T1, opioid receptors (Rattus norvegicus, UniProt P33535).
T1 construct: opioid receptors in rat-brain homogenate; from tissue; host or cells: rat brain (Sprague-Dawley) without cerebellum, homogenate / crude membrane pellet
The experiment in a line: competition for binding of [^3 H]-dihydromorphine (DHM) to opioid receptors in rat-brain homogenate. Conditions: 1 nM ^3 H-DHM; 25° C., 30 minutes; read-out: IC50 for specific binding of ^3 H-DHM to rat-brain homogenate. Set-up: species or system rat (Sprague-Dawley). The protocol:
(1) Evaluation of the competition for binding of [^3 H]-dihydromorphine(DHM) to opioid receptors in rat-brain homogenate
The experiments were carried out according to the method described by Simon et al. [Proc. Nat. Acad. Sci. U.S.A., 70, pp. 1947-1949, (1973)].
Sprague-Dawley rats weighing about 150 g were used.
The animals were decapitated and, after removal of cerebellum, the brains were homogenized in […] Tris-HCl buffer (pH 7.4) containing 0.32M saccharose. The homogenate was centrifugated at 1000 rpm for 10 minutes and the supranatant was centrifugated again at 20000 rpm for 20 minutes.
The obtained pellet was suspended in a homogenization buffer without saccharose up to a protein concentration of 2 mg/ml. The incubating system consisted in: 500 μl of homogenate (1 mg of proteins), 390 μl of 50 mM Tris-HCl buffer (pH 7.4), 100 μl of a solution at different concentrations of the compounds of formula I or of 10 μM Naloxone for the determination of the aspecific binding and 10 μl of ^3 H-DHM (specific activity […], 1 nM final concentration). The mixture was incubated at 25° C. for 30 minutes after the addition of the radioactive binder.
Then, the samples were filtered through Whatman GF/B filters, washed twice with 3 ml volumes of buffer and dried in oven at 70° C. Filters were put in scintillation vials with 15 ml of Filter Count (Packard) scintillation cocktail and the radioactivity was evaluated by a Packard Tricarb 4530 scintillation counter with 60% efficiency.
The activity was expressed as inhibiting concentration (IC50) 50% of the binding of ^3 H-DHM.

Data set [3] is described as follows: Jumping test on mouse (capacity to induce physical dependence). The class given is in vivo. Conditions: Naloxone 10 mg/kg i.p. 4 hours after last administration, 15 minutes. The protocol:
The compounds object of the present invention were tested in vivo in order to evaluate the capacity to induce physical dependence. The Jumping test described by Sealens et al. [Committee on Problems of Drug Dependence, vol. 2, (1971), page 1310] was used.
After 4 hours from the last administration, the animals were treated with Naloxone (10 mg/kg i.p.) and the number of jumps taken by the animals during the period of 15 minutes after the administration of Naloxone was counted.
In table 4, for exemplifying purposes, the percentage of jumping animals obtained for a compound of formula I is reported.

[4] abbreviates: sc, subcutaneous, mouse hot plate test, read-out: Analgesic activity ED50 (C.L. 95%), s.c.
Setting [5] is: oral, mouse hot plate test, read-out: Analgesic activity ED50 (C.L. 95%), os.

What is called ED50 is the midpoint of the dose-response relation. For orientation: IC50 means the concentration that inhibits the measured activity by half.

The structures appear in SMILES notation. Where two headings read alike, the source gives them in different places.

T1 sequence (P33535 whole entry): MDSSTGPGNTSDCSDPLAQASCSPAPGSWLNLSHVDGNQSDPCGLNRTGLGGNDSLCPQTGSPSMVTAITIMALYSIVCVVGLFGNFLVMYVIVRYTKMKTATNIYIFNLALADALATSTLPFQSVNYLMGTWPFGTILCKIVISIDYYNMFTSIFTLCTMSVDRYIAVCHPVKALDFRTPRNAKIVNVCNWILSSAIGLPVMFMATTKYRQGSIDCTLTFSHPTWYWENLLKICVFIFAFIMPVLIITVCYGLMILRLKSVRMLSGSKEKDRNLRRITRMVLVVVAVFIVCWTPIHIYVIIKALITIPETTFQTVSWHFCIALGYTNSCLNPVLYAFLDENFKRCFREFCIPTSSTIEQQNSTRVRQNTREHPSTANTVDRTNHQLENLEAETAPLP

`CC[C@@H](C)N(C[C@@H](O)[C@H]1CCC(=O)N1Cc1ccccc1Cl)[C@H](C)CC` [Compound 4, (1R)-1-[(5R)-1-[(2-chlorophenyl)methyl]-2-oxo-5-pyrrolidinyl]-2-[(2R,2'R)-disec.butylamino]ethanol]: the median effective dose (ED50) in data set [1] (setting [4]) was 3.8 mg/kg. The same compound came in with an IC50 in data set [2] (Cavia porcellus) of 8.7 nM.

Regarding `CC[C@@H](C)N(C[C@H](O)[C@@H]1CCC(=O)N1Cc1ccc(Cl)c(Cl)c1)[C@H](C)CC` [Compound 20, (1S)-1-[(5S)-1-[(3,4-dichlorophenyl)methyl]-2-oxo-5-pyrrolidinyl]-2-[(2R,2'R)-disec.butylamino]ethanol], in data set [1] (setting [4]), the 50% effective dose (ED50) came to 0.28 mg/kg. In data set [2] (Cavia porcellus), the IC50 turned out to be 0.23 nM.

As for `CC[C@@H](C)N(C[C@H](O)[C@@H]1CCC(=O)N1Cc1ccccc1Cl)[C@@H](C)CC` [Compound 8, (1S)-1-[(5S)-1-[(2-chlorophenyl)methyl]-2-oxo-5-pyrrolidinyl]-2-[(2R,2'S)-disec.butylamino]ethanol], the 50% effective dose (ED50) in data set [1] (setting [4]) stood at 1.4 mg/kg. Also, in data set [2] (Cavia porcellus), the midpoint of inhibition, the IC50, lay at 44 nM.

Consider `CC[C@@H](C)N(C[C@H](O)[C@@H]1CCC(=O)N1Cc1cccc(C(F)(F)F)c1)[C@H](C)CC` [Compound 24, (1S)-1-[(5S)-2-oxo-1-[(3-trifluoromethylphenyl)methyl]-5-pyrrolidinyl]-2-[(2R,2'R)-disec.butylamino]ethanol], for which the 50% effective dose (ED50) in data set [1] (setting [4]) was 0.5 mg/kg. In addition, the 50% inhibitory concentration (IC50) in data set [2] (Cavia porcellus) came to 2.9 nM.

`CC[C@H](C)N(C[C@@H](O)[C@@H]1CCC(=O)N1Cc1ccccc1Cl)[C@@H](C)CC` [Compound 5, (1R)-1-[(5S)-1-[(2-chlorophenyl)methyl]-2-oxo-5-pyrrolidinyl]-2-[(2S,2'S)-disec.butylamino]ethanol] registered a half-maximal inhibitory concentration (IC50) in data set [2] (Cavia porcellus) of 50 nM.

As for `CC[C@@H](C)N(C[C@H](O)[C@@H]1CCC(=O)N1Cc1ccccc1)[C@H](C)CC` [Compound 14, (1S)-1-[(5S)-2-oxo-1-(phenylmethyl)-5-pyrrolidinyl]-2-[(2R,2'R)-disec.butylamino]ethanol], the ED50 was determined as 6.5 mg/kg in data set [1] (setting [5]) and 0.04 mg/kg in data set [1] (setting [4]). Also, the values for the half-maximal inhibitory concentration (IC50) (on opioid receptors; in data set [2] (Cavia porcellus)) were 3.3 nM and 0.43 nM, respectively.

Take `CN1CC[C@]23c4c5ccc(O)c4O[C@H]2[C@@H](O)C=C[C@H]3[C@H]1C5` [morphine, reference compound]: the 50% effective dose (ED50) in data set [1] (Mus musculus, po, read-out: Analgesic activity ED50 (C.L. 95%), os) was 18 mg/kg; in data set [1] (Mus musculus, sc, read-out: Analgesic activity ED50 (C.L. 95%), s.c.), 3.5 mg/kg. Moreover, the “Percentage of jumping animals (total dose 156.0 mg/kg i.p.)” value in data set [3] (total dose 156.0 mg/kg i.p.) is on record as 80%.

For the compound `CC[C@@H](C)N(C[C@@H](O)[C@@H]1CCC(=O)N1Cc1ccccc1F)[C@H](C)CC` [Compound 15, (1R)-1-[(5S)-1-[(2-fluorophenyl)methyl]-2-oxo-5-pyrrolidinyl]-2-[(2R,2'R)-disec.butylamino]ethanol], the midpoint of inhibition in data set [2] (Cavia porcellus), the IC50, lay at 40 nM.

With `CC[C@@H](C)N(C[C@H](O)[C@@H]1CCC(=O)N1Cc1ccc(Br)cc1)[C@H](C)CC` [Compound 26, (1S)-1-[(5S)-1-[(4-bromophenyl)methyl]-2-oxo-5-pyrrolidinyl]-2-[(2R,2'R)-disec.butylamino]ethanol], the ED50 in data set [1] (setting [4]) was 0.03 mg/kg. Besides, the IC50 in data set [2] (Cavia porcellus) worked out at 0.04 nM.

As to `CC[C@@H](C)N(C[C@@H](O)[C@H]1CCC(=O)N1Cc1ccccc1Cl)[C@@H](C)CC` [Compound 12, (1R)-1-[(5R)-1-[(2-chlorophenyl)methyl]-2-oxo-5-pyrrolidinyl]-2-[(2R,2'S)-disec.butylamino]ethanol], 83 nM corresponded to half-maximal inhibition in data set [2] (Cavia porcellus) (IC50).

As to `CC[C@@H](C)N(C[C@H](O)[C@@H]1CCC(=O)N1Cc1ccccc1F)[C@H](C)CC` [Compound 16, (1S)-1-[(5S)-1-[(2-fluorophenyl)methyl]-2-oxo-5-pyrrolidinyl]-2-[(2R,2'R)-disec.butylamino]ethanol], the ED50 is 5.8 mg/kg in data set [1] (setting [5]) and 0.03 mg/kg in data set [1] (setting [4]). Moreover, the IC50 at opioid receptors was determined as 2.5 nM; in data set [2] (Cavia porcellus), 0.29 nM.

Turning to `O=C1CC[C@@H]([C@@H](O)CN(C2CCCC2)C2CCCC2)N1Cc1ccccc1Cl` [Compound 36, (1S)-1-[(5S)-1-[(2-chlorophenyl)methyl]-2-oxo-5-pyrrolidinyl]-2-dicyclopentylaminoethanol], in data set [1] (setting [4]), the ED50 was 4.7 mg/kg. For the same compound, the concentration for half-maximal inhibition (IC50) in data set [2] (Cavia porcellus) came out at 4.06 nM.

In the case of `CC[C@@H](C)N(C[C@H](O)[C@H]1CCC(=O)N1Cc1ccccc1Cl)[C@H](C)CC` [Compound 3, (1S)-1-[(5R)-1-[(2-chlorophenyl)methyl]-2-oxo-5-pyrrolidinyl]-2-[(2R,2'R)-disec.butylamino]ethanol], the midpoint of inhibition in data set [2] (Cavia porcellus), the IC50, lay at 4.6 nM.

For `CC[C@@H](C)N(C[C@@H](O)[C@@H]1CCC(=O)N1Cc1ccccc1Cl)[C@@H](C)CC` [Compound 7, (1R)-1-[(5S)-1-[(2-chlorophenyl)methyl]-2-oxo-5-pyrrolidinyl]-2-[(2R,2'S)-disec.butylamino]ethanol], the IC50 in data set [2] (Cavia porcellus) was 70 nM.

`CC[C@@H](C)N(C[C@H](O)[C@@H]1CCC(=O)N1Cc1ccccc1Cl)[C@H](C)CC` [Compound 1, (1S)-1-[(5S)-1-[(2-chlorophenyl)methyl]-2-oxo-5-pyrrolidinyl]-2-[(2R,2'R)-disec.butylamino]ethanol]: the 50% effective dose (ED50) is 2.6 mg/kg in data set [1] (setting [5]) and 0.011 mg/kg in data set [1] (setting [4]). The half-inhibitory concentration (IC50) on opioid receptors is 0.9 nM; in data set [2] (Cavia porcellus), 0.03 nM. In addition, the “Percentage of jumping animals (total dose 3.8 mg/kg i.p.)” value in data set [3] (total dose 3.8 mg/kg i.p.) is 5%.

As to `CC[C@@H](C)N(C[C@H](O)[C@@H]1CCC(=O)N1Cc1ccccc1Cl)C(C)C` [Compound 38, (1S)-1-[(5S)-1-[(2-chlorophenyl)methyl]-2-oxo-5-pyrrolidinyl]-2-[[(R)-sec.butyl]isopropylamino]ethanol], the ED50 in data set [1] (setting [4]) was determined as 1.1 mg/kg. The compound further came in with a 50% inhibitory concentration (IC50) in data set [2] (Cavia porcellus) of 21.5 nM.

In data set [2] (Cavia porcellus), `CC(C)N(C[C@H](O)[C@@H]1CCC(=O)N1Cc1ccccc1Cl)C(C)C` [Compound 34, (1S)-1-[(5S)-1-[(2-chlorophenyl)methyl]-2-oxo-5-pyrrolidinyl]-2-diisopropylaminoethanol] returned an IC50 of 44.7 nM.

For the compound `CC[C@@H](C)N(CC(O)C1CCCC(=O)N1Cc1ccccc1Cl)[C@H](C)CC` (stereo partly drawn) [Compound 43, 1-[2-[(2-chlorophenyl)methyl]-2-oxo-6-piperidinyl]-2-[(2R,2'R)-disec.butylamino]ethanol], the “Analgesic activity ED50 (C.L. 95%), s.c.” value in data set [1] (subcutaneous, mouse hot plate test) came to 0.1 mg/kg. Besides, the IC50 in data set [2] is 0.5 nM.

Take `CCC(CC)N(C[C@H](O)[C@@H]1CCC(=O)N1Cc1ccccc1Cl)C(CC)CC` [Compound 40, (1S)-1-[(5S)-1-[(2-chlorophenyl)methyl]-2-oxo-5-pyrrolidinyl]-2-[bis(1-ethylpropyl)amino]ethanol]: 60 nM corresponded to half-maximal inhibition in data set [2] (Cavia porcellus) (IC50).

For the compound `CC[C@@H](C)N(C[C@H](O)[C@@H]1CCC(=O)N1Cc1cccc(OC)c1)[C@H](C)CC` [Compound 18, (1S)-1-[(5S)-1-[(3-methoxyphenyl)methyl]-2-oxo-5-pyrrolidinyl]-2-[(2R,2'R)-disec.butylamino]ethanol], the ED50 in data set [1] (setting [4]) came out at 0.07 mg/kg. In addition, 0.28 nM corresponded to half-maximal inhibition in data set [2] (Cavia porcellus) (IC50).

Turning to `CC[C@@H](C)N(C[C@@H](O)[C@@H]1CCC(=O)N1Cc1ccc(Cl)c(Cl)c1)[C@H](C)CC` [Compound 19, (1R)-1-[(5S)-1-[(3,4-dichlorophenyl)methyl]-2-oxo-5-pyrrolidinyl]-2-[(2R,2'R)-disec.butylamino]ethanol], the IC50 in data set [2] (Cavia porcellus) was found to be 0.77 nM.

Take `CC[C@@H](C)N(C[C@H](O)[C@@H]1CCC(=O)N1Cc1cc(Br)no1)[C@H](C)CC` [Compound 22, (1S)-1-[(5S)-1-(3-bromo-5-isoxazolylmethyl)-2-oxo-5-pyrrolidinyl]-2-[(2R,2'R)-disec.butylamino]ethanol]: the median effective dose (ED50) in data set [1] (setting [4]) amounted to 1 mg/kg. Further, the values for the IC50 (on opioid receptors; in data set [2] (Cavia porcellus)) were 9.4 nM and 4.96 nM, respectively.
